Consider one compound from patent publication US20220016144A1, “STABLE AQUEOUS COMPOSITION COMPRISING OLIGOSACCHARIDES” (SOCIETE DES PRODUITS NESTLE S.A., priority 2018, published 2022).

The data set can be described thus: Example 2: HPLC analysis of oligosaccharides, fructose isomers and lactose at pH 6 and 7 over aseptic filling and room temperature storage. The data set is classed as physicochemical. How it is done:
Oligosaccharides 2′Fucosyllactose (2′FL) and Lacto-N-neotetraose (LNnT) were mixed in a 10:1 ratio (w/w) and dissolved in water to a final concentration of 10% (w/v). Out of this solution, […] samples were generated respectively having pH 6 and 7 (by addition of KOH) Such samples were subjected to heat treatment (UHT) followed by aseptic filling of small monodose bottles. Solutions at different pHs were analysed before and after filling of bottles as well as after different times of storage at room temperature (21-26° C.). Analysis was done by HPLC using a TSK gel Amide-80 (150 mm×4.6 mm, particle size: 3 μm) column and detection via a charged aerosol detector. F or 2′FL (FIG. 2a), LNnT (FIG. 2d), the fructose isomers of the added 2′FL (indicated as FL lactulose in the graphs, FIG. 2d) and of added LNnT (indicated as LNnT isomer in the graphs, FIG. 2e) as well as for their degradation products (lactose, FIG. 2c). The pH of the solution was also measured. All data are expressed as % of added oligosaccharides.

Consider `CC(=O)N[C@H]1[C@H](O[C@H]2[C@@H](O)[C@@H](CO)O[C@@H](O[C@H]3[C@H](O)[C@@H](O)C(O)O[C@@H]3CO)[C@@H]2O)O[C@H](CO)[C@@H](O[C@@H]2O[C@H](CO)[C@H](O)[C@H](O)[C@H]2O)[C@@H]1O` (mixture of isomers) [LNnT, lacto-N-neotetraose], for which the LNnT isomers formation result (pH 6, compared with pH 7) was “much lower”. For the setting “pH 6, UHT, aseptic filling, storage at 21-26° C., 2′FL:LNnT 10:1, 10% w/v”, the “oligosaccharide amounts at aseptic filling and over time” value is recorded as “much more stable”.
